Laboratory results from US8673915B2, “P 2×4 receptor antagonist” (Nippon Chemiphar Co., Ltd., priority 2010, dated 2014).
Counter-ions that a name gives are not always drawn.

Biological target: T1, P2X4 receptor (Homo sapiens, UniProt Q99571)
T1 sequence (Q99571 1-388): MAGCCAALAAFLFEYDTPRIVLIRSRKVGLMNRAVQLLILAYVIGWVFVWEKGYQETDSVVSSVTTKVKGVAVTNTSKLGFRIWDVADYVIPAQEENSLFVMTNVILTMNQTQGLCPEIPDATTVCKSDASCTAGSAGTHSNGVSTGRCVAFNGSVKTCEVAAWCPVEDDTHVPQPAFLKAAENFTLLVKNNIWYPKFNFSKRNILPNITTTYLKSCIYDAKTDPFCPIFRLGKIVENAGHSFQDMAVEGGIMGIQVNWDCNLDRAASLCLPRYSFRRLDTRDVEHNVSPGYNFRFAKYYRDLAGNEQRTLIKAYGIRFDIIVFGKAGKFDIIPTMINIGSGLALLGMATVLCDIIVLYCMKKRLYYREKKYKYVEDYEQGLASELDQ
Assay: not given
Details: disclosed in Non-patent document 8; cited from earlier work

| SMILES | P2X4 receptor antagonism |
| --- | --- |
| Fc1ccc([C@@H]2CCNC[C@H]2COc2ccc3c(c2)OCO3)cc1 [Paroxetine] | shows P2X4 receptor antagonism |

Biological target: T1, P2X4 receptor
Assay: Intracellular calcium assay (Fura-2 AM) of ATP-induced calcium influx in 1321N1 cells stably expressing human P2X4 receptors
Type: cell-based
Details: Table 25, Example 30; 1321N1 cells expressing human P2X4; compounds added 15 minutes before ATP; Fura-2 340/380 nm ratio; read-out: IC50 (P2X4 receptor antagonism)
Experimental: 1321N1 cells stably expressing human P2X4 receptors were plated in 96-well assay plate and cultured 24 hours at 37° C. in an atmosphere of 5% CO2 for intracellular calcium assay. Fura-2 AM calcium fluorescent indicator was used for the intracellular calcium assay. Fura-2 AM was dissolved in an assay buffer, and the solution was loaded onto cells. The obtained plate was used for fluorescent assay. Test compounds were treated to cells 15 minutes before the addition of ATP, and the response to intracellular calcium influx induced by addition of ATP was monitored by a micro plate reader. The fluorescence ratio of excitations wavelengths of 340 nm and 380 nm was used as the index of intracellular calcium change. The inhibition activities of the test compounds were calculated by comparison with the absence of the test compound (control).
P2X4 receptor antagonism of the compound of the present invention was measured as described below.
P2X4 receptor antagonism of the compound of the present invention was measured in the same manner as in Example 30.

| IC50 | SMILES |
| --- | --- |
| 460 nM | O=c1[nH]c2c3ccccc3ccc2n(-c2cccc(-c3nnn[nH]3)c2)c1=O [Example 2, 4-[3-(1H-Tetrazol-5-yl)phenyl]-1,4-dihydrobenzo[f]quinoxaline-2,3-dione sodium salt] |
| 6600 nM | COc1cccc(-n2c(=O)c(=O)[nH]c3c4ccccc4ccc32)c1 [Example 3, 4-(3-Methoxyphenyl)-1,4-dihydrobenzo[f]quinoxaline-2,3-dione] |
| 5100 nM | Nc1cccc(-n2c(=O)c(=O)[nH]c3c4c(ccc32)CCCC4)c1 [Example 7, 4-(3-Aminophenyl)-1,4,7,8,9,10-hexahydrobenzo[f]quinoxaline-2,3-dione hydrochloride] |
| 2100 nM | O=c1[nH]c2c3c(ccc2n(-c2cccc(NS(=O)(=O)c4ccccc4[N+](=O)[O-])c2)c1=O)CCCC3 [Example 9, N-[3-(2,3-Dioxo-2,3,7,8,9,10-hexahydrobenzo[f]quinoxalin-4(1H)-yl)phenyl]-2-nitrobenzenesulfonamide] |

Same assay, conditions: Table 26, Example 31; same manner as in Example 30; read-out: IC50 (P2X4 receptor antagonism)

| SMILES | IC50 |
| --- | --- |
| Nc1cccc(-n2c(=O)c(=O)[nH]c3c4ccccc4ccc32)c1 [Example 13, 4-(3-Aminophenyl)-1,4-dihydrobenzo[f]quinoxaline-2,3-dione hydrochloride] | 2100 nM |
| O=C(Cc1ccccc1I)Nc1cccc(-n2c(=O)c(=O)[nH]c3c4ccccc4ccc32)c1 [Example 14, 4-[3-[(2-Iodophenylacetyl)amino]phenyl)-1,4-dihydrobenzo[f]quinoxaline-2,3-dione] | 880 nM |
| Cc1nnc(-c2cccc(-n3c(=O)c(=O)[nH]c4c5ccccc5ccc43)c2)o1 [Example 15, 4-[3-(5-Methyl-[1,3,4]oxadiazol-2-yl)phenyl]-1,4-dihydrobenzo[f]quinoxaline-2,3-dione] | 6700 nM |
| O=c1[nH]c2c3ccccc3ccc2n(-c2ccc(O)cc2)c1=O [Example 17, 4-(4-Hydroxyphenyl)-1,4-dihydrobenzo[f]quinoxaline-2,3-dione sodium salt] | 2700 nM |
| Nc1ccc(-n2c(=O)c(=O)[nH]c3c4ccccc4ccc32)cc1 [Example 18, 4-(4-Aminophenyl)-1,4-dihydrobenzo[f]quinoxaline-2,3-dione hydrochloride] | 5700 nM |
| O=C(Nc1cccc(-n2c(=O)c(=O)[nH]c3c4c(ccc32)CCCC4)c1)c1ccccc1C(F)(F)F [Example 21] | 7700 nM |
| O=c1[nH]c2c3c(ccc2n(-c2cccc(NS(=O)(=O)c4cccs4)c2)c1=O)CCCC3 [Example 26, N-[3-(2,3-Dioxo-2,3,7,8,9,10-hexahydro-1H-benzo[f]quinoxalin-4-yl)phenyl]-2-thiophenesulfonamide] | 1800 nM |
| O=c1[nH]c2c3c(ccc2n(-c2cccc(NS(=O)(=O)c4cccnc4)c2)c1=O)CCCC3 [Example 27, N-[3-(2,3-Dioxo-2,3,7,8,9,10-hexahydro-1H-benzo[f]quinoxalin-4-yl)phenyl]-3-pyridinesulfonamide hydrochloride] | 3000 nM |

Now from value to molecule:

| IC50 | SMILES |
| --- | --- |
| 800 nM | O=c1[nH]c2c3c(ccc2n(-c2cccc(NS(=O)(=O)c4ccccc4)c2)c1=O)CCCC3 [Example 22, N-[3-(2,3-Dioxo-2,3,7,8,9,10-hexahydro-1H-benzo[f]quinoxalin-4-yl)phenyl]benzenesulfonamide] |
| 1300 nM | O=c1[nH]c2c3c(ccc2n(-c2cccc(NS(=O)(=O)c4cccc(Br)c4)c2)c1=O)CCCC3 [Example 23, 3-Bromo-N-[3-(2,3-dioxo-2,3,7,8,9,10-hexahydro-1H-benzo[f]quinoxalin-4-yl)phenyl]benzenesulfonamide] |
| 2600 nM | O=c1[nH]c2c3c(ccc2n(-c2cccc(NS(=O)(=O)c4cccc5ccccc45)c2)c1=O)CCCC3 [Example 24, N-[3-(2,3-Dioxo-2,3,7,8,9,10-hexahydro-1H-benzo[f]quinoxalin-4-yl)phenyl]-1-naphthalenesulfonamide] |
| 1900 nM | O=c1[nH]c2c3c(ccc2n(-c2cccc(NS(=O)(=O)c4cccc5cccnc45)c2)c1=O)CCCC3 [Example 28, N-[3-(2,3-Dioxo-2,3,7,8,9,10-hexahydro-1H-benzo[f]quinoxalin-4-yl)phenyl]-8-quinolinesulfonamide hydrochloride] |
